Columns and labels:
[1] = tested on: NKL (Natural killer cell lymphoblastic leukemia/lymphoma); test: Cell viability assay ([…]-GLO); assay type: cell-based; settings: Homo sapiens, 60 h, read-out: IC50 in nM at 60 Hours
Source text: (§1) Cell lines. The T cell lymphoma cell lines HH and H9 (both Cutaneous T Cell Lymphomas; CTCL), SUP-T1 (T Cell Lymphoblastic Lymphoma) and FEPD and SUP-M2 (ALK-negative anaplastic large cell lymphoma; ALCL), were obtained from ATCC. NKL (Natural killer cell lymphoblastic leukemia/lymphoma) cell lines (Robertson et al., 1996) were also employed. The cutaneous melanoma cell line FM3-29 was obtained from DSMZ. The Large Granular Lymphocyte (LGL) leukemia cell line TL-1 was generated in the Loughran lab. All cells were grown at 37° C. and 5% CO2 in a humidified incubator. Cell lines were authenticated by short tandem repeat DNA profiling (Genetica DNA laboratories) and tested for mycoplasma contamination routinely using the MycoAlert PLUS detection kit (Lonza #LT07-710). Experiments were performed within 6 weeks of thawing. HH, H9, SUP-T1, FEPD and FM3-29 cells were cultured in RPMI-1640 (Corning, Glendale, AZ) with 10% FBS (Thermofisher Scientific, Waltham, MA). SUP-M2 cells were cultured in RPMI-1640 with 20% FBS. TL-1 cells were cultured in RPMI-1640 with 10% FBS and supplemented with 200 U/ml IL-2 (Miltenyi Biotec cat #130-097-743). NKL cells were cultured in RPMI-1640 with 10% FBS and supplemented with 100 U/ml IL-2.
(§2) Cell Viability Assay. For cell viability, cell lines were plated at the appropriate cell densities (SUP-T1, HH, NKL and TL-1 at 100,000 cells/ml/well and H9, FEPD SUP-M2 and FM3-29 at 50,000 cells/ml/well) in a 48-well plate. […] Cells were harvested after 24, 60, and 96 hours of incubation at 37° C., 5% CO2 and assayed for cell viability, using […]-GLO® (Promega) luminescence reagent, by quantifying the amount of ATP present. After 15 minutes of adding […]-GLO® reagent at a 1:1 ratio, luminescence was read on a GLOMAX® Discover Microplate Reader (Promega). Luminescence was normalized to untreated control, which was defined as 100% viability.

HH (CTCL) = test: Cell viability assay ([…]-GLO); assay type: cell-based; settings: Homo sapiens, 60 h, read-out: IC50 in nM at 60 Hours
Source text: as §1, §2

H9 (CTCL) = test: Cell viability assay ([…]-GLO); assay type: cell-based; settings: Homo sapiens, 60 h, read-out: IC50 in nM at 60 Hours
Source text: as §1, §2

FEPD (ALCL) = test: Cell viability assay ([…]-GLO); assay type: cell-based; settings: Homo sapiens, 60 h, read-out: IC50 in nM at 60 Hours
Source text: as §1, §2

TL-1 (LGL leukemia) = test: Cell viability assay ([…]-GLO); assay type: cell-based; settings: Homo sapiens, 60 h, read-out: IC50 in nM at 60 Hours
Source text: as §1, §2

SUP-M2 (ALK-ALCL) = test: Cell viability assay ([…]-GLO); assay type: cell-based; settings: Homo sapiens, SUP-M2, 60 h, read-out: IC50 in nM at 60 Hours
Source text: as §1, §2

[2] = tested on: FM3-29 (cutaneous melanoma); test: Cell viability assay ([…]-GLO); assay type: cell-based; settings: Homo sapiens, 60 h, read-out: IC50 in nM at 60 Hours
Source text: as §1, §2

[3] = tested on: SUP-T1 (T Cell Lymphoblastic Lymphoma); test: Cell viability assay ([…]-GLO); assay type: cell-based; settings: Homo sapiens, SUP-T1, 60 h, read-out: IC50 in nM at 60 Hours
Source text: as §1, §2

[4] = Pharmacokinetic study, romidepsin in plasma; settings: mouse, in vivo, 2.5 mg/kg
Procedure: Each treatment cohort was further divided into two sub-cohorts depending upon the route of administration (IP or IV). […] Mice were sacrificed (n=3 per time point) at 1, 3, 6, 18, 24, 48, and 72 hours after the treatment. Blood (˜1 mL) was collected via terminal cardiac puncture under CO2 anesthesia and collected in EDTA-coated K3EDTA tubes followed by centrifugation (2000×g for 15 min) to isolate plasma. Plasma was placed in cryopreservation vials and preserved by snap freezing using liquid nitrogen. Blood from three untreated mice was collected at the beginning of the treatment (T=0) and used as a control.
For efficacy study: 5- to 7-week-old female NOD.Cg-Prkdcscid Il2rgtm1Wjl/SzJ mice (The Jackson Laboratory). were injected with 3 million a fluorescent protein, Chili (dTomato-absorption max and emission max at 554 nm and 581 nm respectively)—and a bioluminescence generating protein, firefly luciferase (Luc) expressing H9 cells subcutaneously in the flank. In vivo BLI analysis was conducted on a cryogenically cooled Lago X (Spectral Instruments Imaging system). Mice were imaged twice a week starting 4 days after inoculation of cells. […] Baseline imaging data were recorded for all mice on day 1 (start of drug administration) and on each day of drug administration before the treatment. The numbers of animals, study design, and treatment of animals were reviewed, and approved by the Institutional Animal Care and Use Committee (IACUC) of the University of Virginia, Charlottesville, Virginia, United States of America.

[5] = tested on: human CLL, PLL, T cell lymphoma, esophageal and pancreatic cancer and multiple myeloma cells; settings: in vitro; cited from earlier work

C/C=C1\NC(=O)[C@H]2CSSCC/C=C/[C@H](CC(=O)N[C@H](C(C)C)C(=O)N2)OC(=O)[C@H](C(C)C)NC1=O [Romidepsin, (1S,4S,7Z,10S,16E,21R)-7-Ethylidene-4,21-diisopropyl-2-oxa-12,13-dithia-5,8,20,23-tetrazabicyclo[8.7.6]tricos-16-ene-3,6,9,19,22-pentone]
IC50 [1]: 0.7 nM
IC50 (HH (CTCL)): 1.3 nM
IC50 (H9 (CTCL)): 1.4 nM
IC50 (FEPD (ALCL)): 1.6 nM
IC50 (TL-1 (LGL leukemia)): 0.7 nM
IC50 (SUP-M2 (ALK-ALCL)): 1.6 nM
IC50 [2]: 0.6 nM
IC50 [3]: 1.9 nM
AUC(0-inf) ([4]; ip): 1930 ng·h/mL
AUC(0-t) ([4]; ip): 1920 ng·h/mL
Cmax ([4]; ip): 120 ng/mL
MRT inf ([4]; ip): 12.8 h
Tmax ([4]; ip): 6 h
Vd/F ([4]; ip): 20 L/kg
half-life ([4]; ip): 9.83 h
AUC(0-inf) ([4]; iv): 108 ng·h/mL
AUC(0-t) ([4]; iv): 99.3 ng·h/mL
Cmax ([4]; iv): 21.3 ng/mL
MRT inf ([4]; iv): 5.53 h
Tmax ([4]; iv): 1 h
half-life ([4]; iv): 5.22 h
concentrations at which anti-proliferative and pro-apoptotic activity was seen [5]: 1 to 500 nM

— patent US20250302767A1, “TREATMENT OF CANCER AND AUTOIMMUNE DISORDERS USING NANO POLYMERS OF HISTONE DEACETYLASE INHIBITORS” (University of Virginia Patent Foundation, priority 2021, published 2025)
